Read-outs that look alike come from different tables or passages of the source.
What was measured:
[1] = design: method as in PMID 28074653; conditions: ambient temperature, solvolysis and oxidative degradation; cited from earlier work
[2] = system: HepG2 (hepatocellular carcinoma); test: In vitro antiproliferative activity, Alamar Blue assay; type: cell-based; conditions: Homo sapiens
Experimental: (§1) For the experiments, the following human cell lines were used: A2058 (melanoma, derived from metastatic site: lymph node), HepG2 (hepatocellular carcinoma), U87 (glioblastoma), HT-29 (colorectal carcinoma) and HL-60 (acute promyelocytic leukaemia). Cell lines were generous gifts from Dr. […] (Department of Experimental Pharmacology, National Institute of Oncology, Budapest, Hungary). […] The cultures were maintained at 37 °C in a humidified atmosphere with 5% CO2. The cells were grown to confluency and then divided into 96-well tissue culture plates (Sarstedt, Nümbrecht, Germany) with an initial cell number of 5000 cells/well. Cells were incubated at 37 °C in a 5% CO2 humidified atmosphere overnight. Before the assay, 50 μL of the supernatant was removed and replaced with a 50 μL serum-free medium (SFM). […] The cells were treated for 24 h with the compounds and negative control cells (no compound control) were treated with SFM only (incubated at 37 °C). […] The percentage of cytostasis was calculated with the following equation: […] Data were evaluated with Excel (version: 365; Microsoft, Redmond, WA, USA) and the curves were defined using Microcal OriginPro (version: 2018; OriginLab, Northampton, MA, USA) software. In each case, two independent experiments were carried out with four parallel measurements and the mean IC50 values together with ±SD were represented. The Excel (version: 365) (Microsoft, Redmond, WA, USA) and Microcal OriginPro (version: 2018) (OriginLab, Northampton, MA, USA) softwares were used for data evaluation.

U87 (glioblastoma) = test: as above; type: cell-based; conditions: Homo sapiens, read-out: IC50 ± SD
Experimental: as §1

[3] = system: HL-60 (acute promyelocytic leukaemia); test: as above; type: cell-based; conditions: Homo sapiens
Experimental: as §1

[4] = system: A2058 (melanoma, derived from metastatic site: lymph node); test: as above; type: cell-based; conditions: Homo sapiens
Experimental: as §1

[5] = system: HT-29 (colorectal carcinoma); test: as above; type: cell-based; conditions: Homo sapiens
Experimental: as §1

[6] = cited from earlier work
[7] = HepG2, 24 h treatment, then three days culture, n = 2, read-out: IC50 ± SD
[8] = U87, 24 h treatment, then three days culture, n = 2
[9] = A2058, 24 h treatment, then three days culture, n = 2, read-out: IC50 ± SD

For `COc1cc(/C=C/C(=O)CC(=O)/C=C/c2ccc(O)c(OC)c2)ccc1O` [Curcumin, curcumin], the half-life [1] is given as “less than an hour”.

`COc1cccc2c1C(=O)c1c(O)c3c(c(O)c1C2=O)C[C@@](O)(C(C)=O)C[C@@H]3O[C@H]1C[C@H](N)[C@H](O)[C@H](C)O1` [Dau, daunomycin, reference compound] gave an IC50 ([2]; HepG2, read-out: IC50 ± SD) of 1.2 ± 0.2 µM, an IC50 (U87 (glioblastoma)) of 0.4 ± 0.05 µM and an IC50 ([3]; HL-60, read-out: IC50 ± SD) of 0.02 ± 0.01 µM. For the same compound, the IC50 ([4]; A2058, read-out: IC50 ± SD) was 0.16 µM and the IC50 ([5]; HT-29, read-out: IC50 ± SD) was 0.2 ± 0.01 µM.

For `COc1cc([C@@H]2c3cc4c(cc3[C@@H](O[C@@H]3O[C@@H]5CO[C@@H](C)O[C@H]5[C@H](O)[C@H]3O)[C@H]3COC(=O)[C@H]23)OCO4)cc(OC)c1O` [Etoposide, etoposide, reference compound], the IC50 [2, 7] was 20.9 ± 1.2 µM, the IC50 (U87 (glioblastoma); [8]) was 27 ± 2.3 µM and the IC50 [4, 9] was 8.9 ± 0.2 µM. The IC50 ([5]; HT-29, 24 h treatment, then three days culture, n = 2, read-out: IC50 ± SD) was 18.5 ± 1.7 µM.

For `O=C(/C=C/CCc1ccc(O)c(O)c1)CCc1ccc(O)c(O)c1` [Hirsutenone, hirsutenone], the half-life ([6]; aqueous solution, 25 °C) is given as 139 h, the half-life ([6]; aqueous solution, 50 °C) is given as 38.2 h and the half-life ([6]; room temperature) is given as “less than seven days”.

In the case of `O=C(Nc1ccc(C(F)(F)F)cc1)c1cc(Cl)ccc1O` [Sal, 5-chloro-2-hydroxy-N-[4-(trifluoromethyl)phenyl]benzamide, reference compound], the IC50 [2, 7] is reported as 5.8 ± 0.7 µM, the IC50 (U87 (glioblastoma); [8]) is reported as 0.8 ± 0.3 µM and the IC50 ([3]; HL-60, 24 h treatment, then three days culture, n = 2, read-out: IC50 ± SD) is reported as 4.5 ± 0.7 µM. For the same compound, the IC50 [4, 9] was 6.8 ± 1.2 µM.

— publication PMC10488193, “Evaluation of the Chemical Stability, Membrane Permeability and Antiproliferative Activity of Cyclic Diarylheptanoids from European Hornbeam (Carpinus betulus L.)” (International Journal of Molecular Sciences, 2023)
